In patent publication US9670224B2, “Forsythiaside sulfate and derivatives thereof, preparation method and application thereof” (priority 2013, dated 2017):
Where a name gives a salt, the structure may show the parent alone. Read-outs that look alike come from different tables or passages of the source. Marks after values point to notes of the source that are not given here.

Experiments:
[1] = system: influenza virus infected mice; assay type: in vivo, Kunming mice; conditions: 5 days
Adenovirus (AdV) = assay: Impact of the drug on virus-induced cytopathy (CPE, MTT), ADV; assay type: cell-based; conditions: Vero cells, 100TCID50, drug at about the maximum non-toxic concentration, 72 h
[2] = system: influenza virus pneumonia model mice; assay: Observation of lung histomorphology, influenza virus pneumonia mice; assay type: in vivo, Kunming mice; conditions: 3.25 mg/kg/d to 13 mg/kg/d, fifth day, HE staining
Procedure: A degreasing cotton is placed in a 200-300 mL beaker, in which a suitable amount of ether (just for making cotton wet) is added, the beaker containing the degreasing cotton is inverted upside down, the mice are extremely excited when anesthetized therein, and are made to lie on their backs when clearly weak, the mice are infected nasally with 15LD50 influenza virus a .d parainfluenza virus at 0.03 ml/nostril, and the virus suspension is replaced with normal saline in the normal control group.
The administration is performed once a day for five consecutive days. The virus control group is drenched with normal saline of the same volume.
Various mice lungs are respectively taken in the fifth day after treatment; general pathological changes of their viscera are observed by naked eyes and are recorded. The lungs are cleaned by rinsing with normal saline and moisture thereon is sucked up by using filter paper; a portion of the lung is fixed with 10% formaldehyde, paraffin-embedded, sliced and HE-strained; observation and photographing are performed under a microscope.

Enterovirus EV71 = assay: Impact of the drug on virus-induced cytopathy (CPE, MTT), EV71; assay type: cell-based; conditions: Vero cells, 100TCID50, drug at about the maximum non-toxic concentration, 72 h
Vero cell = assay: Cytotoxicity test on Vero cells (MTT); assay type: cell-based, African green monkey; conditions: 72 h, Probit regression
Procedure: Cytotoxicity test: drugs are diluted according to the concentrations indicated in Table 1 for the determination of cytotoxicity.
The aforementioned drugs which are diluted with a maintenance solution (DMEM containing 2% or fetal bovine serum) to different concentrations are dropwise added to the Vero monolayer cell, each well is 0.2ml, there are 6 duplicate wells for each concentration, 6 wells for normal control (normal control group without adding drugs) and 6 wells for blank control (culture medium) are additionally provided, those are placed in an 5% CO2 incubator at 37° C. for culturing, observing CPE with an inverted microscope every day and recording. After 72 h, 20 μL (5 mg·mL^−1) of MTT solution is added in each well, and continues to be incubated for 4 h, the culture broth in each well is sucked and discarded, 100 μL of DMSO is added in each well, and is shaken for 5 min, measuring the OD value at 492 nm to calculate cell survival rate. In SPSS 18.0 statistical software, the cell survival rate is subjected to Probit regression analysis to calculate the maximum non-toxic concentration (TC0) and half toxic concentration (TC50) of the drug on the Vero cell.

[3] = system: influenza virus infected mice; assay type: in vivo, Kunming mice; conditions: lung suspension, 5 days
[4] = Solubility of the isolated solid; conditions: water and ethanol
Coxsackievirus B3 (CVB3) = assay: Impact of the drug on virus-induced cytopathy (CPE, MTT), CVB3; assay type: cell-based; conditions: Vero cells, 100TCID50, drug at about the maximum non-toxic concentration, 72 h
[5] = system: parainfluenza virus infected mice; assay type: in vivo, Kunming mice
[6] = system: parainfluenza virus infected mice; assay type: in vivo, Kunming mice; remark: listed apart in the source
[7] = system: parainfluenza virus pneumonia model mice; assay: Observation of lung histomorphology, parainfluenza virus pneumonia mice; assay type: in vivo, Kunming mice; conditions: 3.25 mg/kg/d to 13 mg/kg/d, fifth day, HE staining
Parainfluenza virus = assay: Impact of the drug on virus-induced cytopathy (CPE, MTT), parainfluenza virus; assay type: cell-based; conditions: Vero cells, 100TCID50, drug at about the maximum non-toxic concentration, 72 h
[8] = system: Herpes simplex virus type-1 (HSV-1); assay: Impact of the drug on virus-induced cytopathy (CPE, MTT), HSV-I; assay type: cell-based; conditions: Vero cells, 100TCID50, drug at about the maximum non-toxic concentration, 72 h
Influenza virus = assay: Impact of the drug on virus-induced cytopathy (CPE, MTT), influenza virus; assay type: cell-based
[9] = system: Respiratory syncytial virus (RSV); assay: Impact of the drug on virus-induced cytopathy (CPE, MTT), RSV; assay type: cell-based; conditions: Vero cells, 100TCID50, drug at about the maximum non-toxic concentration, 72 h
[10] = system: Coxsackievirus A16 (CoxA16); assay: Impact of the drug on virus-induced cytopathy (CPE, MTT), CoxA16; assay type: cell-based; conditions: Vero cells, 100TCID50, drug at about the maximum non-toxic concentration, 72 h
[11] = high dosage 13.0 mg/kg/d intragastric
[12] = low dosage 3.25 mg/kg/d intragastric
[13] = parainfluenza virus infected mice, high dosage 13.0 mg/kg/d intragastric, 5 days
[14] = parainfluenza virus infected mice, low dosage 3.25 mg/kg/d intragastric, 5 days

Row | SMILES | antiviral effective rate (ER %), ADV (Adenovirus (AdV)) | antiviral effective rate (ER %), EV71 (Enterovirus EV71) | half toxic concentration (TC50) (Vero cell) [µg/mL] | the maximum non-toxic concentration (TC0) (Vero cell) [g/L] | solubility [4] | antiviral effective rate (ER %), CVB3 (Coxsackievirus B3 (CVB3)) [%] | antiviral effective rate (ER %), Parainfluenza virus (Parainfluenza virus) | antiviral effective rate (ER %), HSV-I [8] | antiviral effective rate (ER %), RSV [9] | antiviral effective rate (ER %), CoxA16 [10] [%] | other results
1 | COc1ccc([C@H]2OCC3C2CO[C@H]3c2ccc(OC)c(OS(=O)(=O)O)c2)cc1OC (stereo partly shown) [forsythiaside sodium sulfate] | 20.91* % | 50.21% | 685 | 0.128 | soluble in water and ethanol | 10.55 |  |  |  |  | Lung index (X ± S) [1, 11]: 1.1809 ± .057; Lung index inhibition rate (%) [1, 11]: 20.73%; Lung index (X ± S) [1, 12]: 1.344 ± 0.035; Lung index inhibition rate (%) [1, 12]: 9.69%; lung histology / pulmonary tissue pathology [2]: significantly improve the pulmonary tissue pathology; Hemagglutination titer (InX) ([3]; high dosage 13.0 mg/kg/d): 20.07 ± 0.646; Hemagglutination titer (InX) ([3]; low dosage 3.25 mg/kg/d): 23.93 ± 1.392; Hemagglutination titer (InX) ([5]; lung suspension, parainfluenza virus infected mice, high dosage 13.0 mg/kg/d, 5 days): 19.82 ± 0.981; Hemagglutination titer (InX) ([5]; lung suspension, parainfluenza virus infected mice, low dosage 3.25 mg/kg/d, 5 days): 23.26 ± 0.991; Hemagglutination titer (InX) ([5]; mouse, in vivo): 21.01 ± 0.614; Lung index (X ± S) ([6]; mouse, in vivo): 1.303 ± 0.062; Lung index inhibition rate (%) ([6]; mouse, in vivo): 18.46%; Lung index (X ± S) [6, 13]: 1.331 ± 0.073; Lung index inhibition rate (%) [6, 13]: 16.73%; Lung index (X ± S) [6, 14]: 1.311 ± 0.049; Lung index inhibition rate (%) [6, 14]: 17.96%; lung histology / pulmonary tissue pathology [7]: significantly improve the pulmonary tissue pathology
2 | NC(=O)c1ncn([C@@H]2O[C@H](CO)[C@@H](O)[C@H]2O)n1 [ribavirin, Ribavirin, reference compound] | 0.43% | 4.25** % |  |  |  | 13.44 | 97.56** % | 62.92** % | 50.08* % | 0.70 | Hemagglutination titer (InX) ([3]; 58.5 mg/kg/d): 21.13 ± 0.986; antiviral effective rate (ER %), Influenza virus (Influenza virus): 57.49** %; Hemagglutination titer (InX) ([5]; lung suspension, parainfluenza virus infected mice, 58.5 mg/kg/d, 5 days): 26.73 ± 1.193
3 | COc1ccc([C@H]2OCC3C2CO[C@H]3c2ccc(OC)c(OS(=O)(=O)O)c2)cc1OC.N (stereo partly shown) | 20.88* % | 35.12% | 555 | 0.105 | soluble in water and ethanol | 7.10 |  |  |  |  | 
4 | CCOC(=O)C1=C[C@@H](OC(CC)CC)[C@H](NC(C)=O)[C@@H](N)C1 [oseltamivir phosphate, Oseltamivir phosphate, reference compound] | 10.31% | 51.86% | 832 | 0.28 |  | 1.64 | 94.52** % | 66.56** % | 37.60% | 2.95 | antiviral effective rate (ER %), Influenza virus (Influenza virus; Vero cells, 100TCID50, drug at about the maximum non-toxic concentration, 72 h, MTT): 81.76** %
